Measured values published in patent publication US11976083B2, “Inhibitors of peptidylarginine deiminases” (Gilead Sciences, Inc., priority 2020, dated 2024).

Biological target: T1, human PAD4 (Homo sapiens, UniProt Q9UM07)
T1 construct: human PAD4 (NM_012387), A2-P663, was PCR amplified; His-SUMO (N, cleaved yes); made in house; host or cells: E. coli BL21(DE3)
Experiment: In vitro PAD4 BAEE biochemical assay
Details: BAEE substrate 3 mM, 5 nM PAD4, 2 mM calcium chloride; geometric mean of multiple experiments
Summary of the method: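 Fluorescence read-out (ex 405/em 535 nm) of isoindole formed from ammonia, o-phthalaldehyde and DTT after EDTA stop. Reaction: 5 nM PAD4, 2 mM CaCl2, 3 mM BAEE, 2 h, 25 °C, after 30 min enzyme–compound preincubation. Normalised to BB-Cl-Amidine (50 µM) and DMSO controls.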

T1 sequence (Q9UM07 2-663): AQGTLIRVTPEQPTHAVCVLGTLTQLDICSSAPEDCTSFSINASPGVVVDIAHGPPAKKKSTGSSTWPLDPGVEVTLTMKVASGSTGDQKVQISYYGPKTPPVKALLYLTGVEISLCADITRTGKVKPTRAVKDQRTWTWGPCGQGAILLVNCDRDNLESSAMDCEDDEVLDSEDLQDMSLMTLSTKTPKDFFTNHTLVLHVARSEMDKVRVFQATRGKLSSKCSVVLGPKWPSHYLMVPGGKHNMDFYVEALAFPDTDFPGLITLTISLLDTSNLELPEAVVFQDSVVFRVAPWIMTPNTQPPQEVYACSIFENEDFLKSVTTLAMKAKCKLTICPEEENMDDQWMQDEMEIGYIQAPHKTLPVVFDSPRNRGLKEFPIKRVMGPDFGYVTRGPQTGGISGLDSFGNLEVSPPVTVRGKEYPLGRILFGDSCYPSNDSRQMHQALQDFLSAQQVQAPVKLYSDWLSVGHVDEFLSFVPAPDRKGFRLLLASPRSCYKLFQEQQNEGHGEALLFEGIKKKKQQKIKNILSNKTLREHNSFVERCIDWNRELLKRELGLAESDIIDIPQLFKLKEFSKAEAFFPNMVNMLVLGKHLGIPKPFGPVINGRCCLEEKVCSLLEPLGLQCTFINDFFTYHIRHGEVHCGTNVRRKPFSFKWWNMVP

Compound	IC50 [µM]
COc1cc(C(=O)N2CC3(CCCCNC3)C2)cc2nc(-c3cc4ccc5nc4n3CC(F)(F)CCC[C@@H]3C[C@H]3C(=O)N[C@@H]5C)n(C)c12 [Example 632, (2~{R},5~{R},7~{R})-14-[5-(2,9-diazaspiro[3.6]decane-2-carbonyl)-7-methoxy-1-methyl-benzimidazol-2-yl]-11,11-difluoro-2-methyl-3,13,19-triazatetracyclo [11.5.2.0^{5,7}.0^{16,20}] icosa-1(19),14,16(20), 17-tetraen-4-one]	0.046
COc1cc(C(=O)N[C@H]2CNC[C@@H](C(F)F)C2)cc2nc(-c3cc4ccc5nc4n3CC(F)(F)CCC[C@@H]3C[C@H]3C(=O)N[C@@H]5C)n(C)c12 [Example 633, 2-[(2~{R},5~{R},7~{R})-11,11-difluoro-2-methyl-4-oxo-3,13,19-triazatetracyclo[11.5.2.0^ {5,7}.0^{16,20}]icosa-1(19),14,16(20), 17-tetraen-14-yl]- ~{N}-[(3~{R},5~{S})-5-(difluoromethyl)-3-piperidyl]-7-methoxy-1-methyl-benzimidazole-5-carboxamide]	0.057
COc1cc(C(=O)N2CC[C@@H](OC)[C@@H](N)C2)cc2nc(-c3cc4ccc5nc4n3CCCCC[C@@H]3C[C@@]3(C(F)(F)F)C(=O)N[C@@H]5C)n(C)c12 [Example 634, (2~{R},5~{S},7~{R})-14-[5-[(3~{S},4~{R})-3-amino-4-methoxy-piperidine-1-carbonyl]-7-methoxy-1-methyl-benzimidazol-2-yl]-2-methyl-5-(trifluoromethyl)-3,13,19-triazatetracyclo[11.5.2.0^ {5,7}.0^{16,20}] icosa-1(19),14,16(20), 17-tetraen-4-one]	0.251
COc1cc(C(=O)N2CC[C@@H](OC)[C@@H](N)C2)cc2nc(-c3cc4ccc5nc4n3CCC/C=C/[C@@H]3C[C@@]3(C(F)(F)F)C(=O)N[C@@H]5C)n(C)c12 [Example 635, (2~{R},5~{S},7~{S},8~{E})-14-[5-[(3~{S},4~{R})-3-amino-4-methoxy-piperidine-1-carbonyl]-7-methoxy-1-methyl-benzimidazol-2-yl]-2-methyl-5-(trifluoromethyl)-3,13,19-triazatetracyclo[11.5.2.0^ {5,7}.0^{16,20}] icosa-1(19),8,14,16(20), 17-pentaen-4-one]	0.682
COc1cc(C(=O)N2CC[C@@H](OC)[C@@H](N)C2)cc2nc(-c3cc4ccc5nc4n3CCCCC[C@H]3C[C@]3(C(F)(F)F)C(=O)N[C@@H]5C)n(C)c12 [Example 636, (2~{R},5~{R},7~{S})-14-[5-[(3~{S},4~{R})-3-amino-4-methoxy-piperidine-1-carbonyl]-7-methoxy-1-methyl-benzimidazol-2-yl]-2-methyl-5-(trifluoromethyl)-3,13,19-triazatetracyclo [11.5.2.0^{5,7}.0^ {16,20}]icosa-1(19), 14,16(20),17-tetraen-4-one]	0.052
[2H]C([2H])([2H])O[C@@H]1CCN(C(=O)c2cc(OC)c3c(c2)nc(-c2cc4ccc5nc4n2CC(F)(F)CCC[C@@H]2C[C@H]2C(=O)N[C@@H]5C)n3C)C[C@@H]1N [Example 637, (2~{R},5~{R},7~{R})-14-[5-[(3~{S},4~{R})-3-amino-4-(trideuteriomethoxy)piperidine-1-carbonyl]-7-methoxy-1-methyl-benzimidazol-2-yl]-11,11-difluoro-2-methyl-3,13,19-triazatetracyclo[11.5.2.0^ {5,7}.0^{16,20}] icosa-1(19),14,16(20), 17-tetraen-4-one]	0.031
C[C@@H]1[C@H](N)CCCN1C(=O)c1cc(F)c2c(c1)nc(-c1cc3ccc4nc3n1CC(F)(F)CCC[C@@H]1C[C@H]1C(=O)N[C@@H]4C)n2C1CC1 [Example 639, (2~{R},5~{R},7~{R})-14-[5-[(2~{R},3~{R})-3-amino-2-methyl-piperidine-1-carbonyl]-1-cyclopropyl-7-fluoro-benzimidazol-2-yl]-11,11-difluoro-2-methyl-3,13,19-triazatetracyclo[11.5.2.0^ {5,7}.0^{16,20}]icosa-1(19),14,16(20),17-tetraen-4-one]	0.015
C[C@H]1NC(=O)[C@@H]2C[C@H]2CCCC(F)(F)Cn2c(-c3nc4cc(C(=O)N5C[C@H](N)C[C@@H](F)C5)cc(F)c4n3C3CC3)cc3ccc1nc32 [Example 640, (2~{R},5~{R},7~{R})-14-[5-[(3~{R},5~{R})-3-amino-5-fluoro-piperidine-1-carbonyl]-1-cyclopropyl-7-fluoro-benzimidazol-2-yl]-11,11-difluoro-2-methyl-3,13,19-triazatetracyclo[11.5.2.0^ {5,7}.0^{16,20}]icosa-1(19),14,16(20),17-tetraen-4-one]	0.024
[2H]C([2H])([2H])O[C@@H]1CCN(C(=O)c2cc(F)c3c(c2)nc(-c2cc4ccc5nc4n2CC(F)(F)CCC[C@@H]2C[C@H]2C(=O)N[C@@H]5C)n3C2CC2)C[C@@H]1N [Example 641, (2~{R},5~{R},7~{R})-14-[5-[(3~{S},4~{R})-3-amino-4-(trideuteriomethoxy)piperidine-1-carbonyl]-1-cyclopropyl-7-fluoro-benzimidazol-2-yl]-11,11-difluoro-2-methyl-3,13,19-triazatetracyclo[11.5.2.0^ {5,7}.0^{16,20}]icosa-1(19),14,16(20),17-tetraen-4-one]	0.049
COc1cc(C(=O)N2[C@H]3CC[C@@H]2[C@H](N)C3)cc2nc(-c3cc4ccc5nc4n3CC(F)(F)CCC[C@@H]3C[C@H]3C(=O)N[C@@H]5C)n(C)c12 [Example 642, (2~{R},5~{R},7~{R})-14-[5-[(1~{R},2~{R},4~ {S})-2-amino-7-azabicyclo[2.2.1]heptane-7-carbonyl]-7-methoxy-1-methyl-benzimidazol-2-yl]-11,11-difluoro-2-methyl-3,13,19-triazatetracyclo [11.5.2.0^{5,7}.0^{16,20}] icosa-1(19),14,16(20), 17-tetraen-4-one]	0.023
COc1cc(C(=O)N2CC[C@@H](OC)[C@@H](N)C2)cc2nc(-c3cc4ccc5c(F)c4n3CCCCCCC(C)(C)C(=O)N[C@@H]5C)n(C)c12 [Example 643, (11~{R})-17-[5-[(3~{S}, 4~{R})-3-amino-4-methoxy-piperidine-1-carbonyl]-7-methoxy-1-methyl-benzimidazol-2-yl]-19-fluoro-8,8,11-trimethyl-1,10-diazatricyclo[10.5.2.0^ {15,18}]nonadeca-12(19),13,15(18),16-tetraen-9-one]	0.054
COc1cc(C(=O)N2CCC[C@@H](N)[C@H]2C(F)F)cc2nc(-c3cc4ccc5nc4n3CCCCCCC(C)(C)C(=O)N[C@@H]5C)n(C)c12 [Example 644, (11~{R})-17-[5-[(2~{S), 3~{R})-3-amino-2-(difluoromethyl)piperidine-1-carbonyl]-7-methoxy-1-methyl-benzimidazol-2-yl]-8,8,11-trimethyl-1,10,19-triazatricyclo [10.5.2.0^{15,18}]nonadeca-12(19),13,15(18),16-tetraen-9-one]	0.076
COc1cc(C(=O)N2CCC[C@@H](N)[C@H]2C)cc2nc(-c3cc4ccc5c(F)c4n3CCCCCCC(C)(C)C(=O)N[C@@H]5C)n(C)c12 [Example 645, (11~{R})-17-[5-[(2~{R},3~ {R})-3-amino-2-methyl-piperidine-1-carbonyl]-7-methoxy-1-methyl-benzimidazol-2-yl]-19-fluoro-8,8,11-trimethyl-1,10-diazatricyclo [10.5.2.0^{15,18}]nonadeca-12(19),13,15(18),16-tetraen-9-one]	0.036
C[C@H]1NC(=O)[C@@H]2C[C@H]2CCCC(F)(F)Cn2c(-c3nc4cc(C(=O)N5C[C@H]6CC[C@@H]5[C@@H]6N)cc(F)c4n3C3CC3)cc3ccc1nc32 [Example 646, (2~{R},5~{R},7~{R})-14-[5-[(1~{R},4~{R},7~{R})-7-amino-2-azabicyclo [2.2.1]heptane-2-carbonyl]-1-cyclopropyl-7-fluoro-benzimidazol-2-yl]-11,11-difluoro-2-methyl-3,13,19-triazatetracyclo [11.5.2.0^{5,7}.0^{16,20}] icosa-1(19),14,16(20), 17-tetraen-4-one]	0.022
COc1cc(C(=O)N2CCC[C@@H](N)[C@H]2C(F)F)cc2nc(-c3cc4ccc5nc4n3CC(F)(F)CCC[C@@H]3C[C@H]3C(=O)N[C@@H]5C)n(C)c12 [Example 647, (2~{R},5~{R},7~{R})-14-[5-[(2~{S},3~{R})-3-amino-2-(difluoromethyl)piperidine-1-carbonyl]-7-methoxy-1-methyl-benzimidazol-2-yl]-11,11-difluoro-2-methyl-3,13,19-triazatetracyclo[11.5.2.0^ {5,7}.0^{16,20}] icosa-1(19),14,16(20), 17-tetraen-4-one]	0.058
COc1cc(C(=O)N2CC[C@@H](OC)[C@@H](N)C2)cc2nc(-c3cc4ccc5c(F)c4n3CC(F)(F)CCC[C@@H]3C[C@H]3C(=O)N[C@@H]5C)n(C)c12 [Example 648, (2~{R},5~{R},7~{R})-14-[5-[(3~{S},4~{R})-3-amino-4-methoxy-piperidine-1-carbonyl]-7-methoxy-1-methyl-benzimidazol-2-yl]-11,11,19-trifluoro-2-methyl-3,13-diazatetracyclo[11.5.2.0^ {5,7}.0^{16,20}] icosa-1(19),14,16(20), 17-tetraen-4-one]	0.041
COc1cc(C(=O)N2CC[C@@H](OC)[C@@H](N)C2)cc2nc(-c3cc4ccc5nc4n3CCCCCc3ccncc3C(=O)N[C@@H]5C)n(C)c12 [Example 649, (2~{R})-17-[5-[(3~{S), 4~{R})-3-amino-4-methoxy-piperidine-1-carbonyl]-7-methoxy-1-methyl-benzimidazol-2-yl]-2-methyl-3,7,16,22-tetrazatetracyclo[14.5.2.0^ {5,10}.0^{19,23}] tricosa-1(22),5,7,9,17,19(23), 20-heptaen-4-one]	0.052
